Measured values taken from ChEMBL document CHEMBL1138190, “Synthesis and antibacterial activity of novel C12 vinyl ketolides” (J Med Chem, 2006).
≈ marks a conversion by molar mass, not a printed value. Calls of active or inactive are those of the source. The rule behind the calls is not given here.

Tests used:
Streptococcus pneumoniae [1] = test: Antibacterial activity against Streptococcus pneumoniae Mef 1790; format: functional
Streptococcus pneumoniae [2] = test: Antibacterial activity against Streptococcus pneumoniae 297-749; format: functional
Streptococcus pneumoniae [3] = test: Antibacterial activity against Streptococcus pneumoniae Erm 6388; format: functional
Streptococcus pneumoniae [4] = test: Antibacterial activity against Streptococcus pneumoniae Mef 953; format: functional
Streptococcus pneumoniae [5] = test: Antibacterial activity against Streptococcus pneumoniae Erm 5399; format: functional
Staphylococcus aureus [6] = test: Antibacterial activity against Staphylococcus aureus 29213; format: functional
Streptococcus pneumoniae [7] = test: Antibacterial activity against Streptococcus pneumoniae Mef 1566; format: functional
Streptococcus pneumoniae [8] = test: Antibacterial activity against Streptococcus pneumoniae Mef 1556; format: functional
Streptococcus pneumoniae [9] = test: Antibacterial activity against Streptococcus pneumoniae Erm 867; format: functional
Streptococcus pneumoniae [10] = test: Antibacterial activity against Streptococcus pneumoniae Mef 2880; format: functional
[11] = Volume of distribution in Sprague-Dawley rat at 5 mg/kg, iv and 15 mg/kg, po; format: ADME, organism-based; conditions: in vivo, read-out: Vdss
Haemophilus influenzae [12] = test: Antibacterial activity against Haemophilus influenzae 2762; format: functional
Streptococcus pneumoniae [13] = test: Antibacterial activity against Streptococcus pneumoniae Mef 9142; format: functional
Streptococcus pneumoniae [14] = test: Antibacterial activity against Streptococcus pneumoniae Erm 8919; format: functional
Streptococcus pneumoniae [15] = test: Antibacterial activity against Streptococcus pneumoniae Mef 10095; format: functional
Streptococcus pneumoniae [16] = test: Antibacterial activity against Streptococcus pneumoniae Erm 3120; format: functional
Streptococcus pneumoniae [17] = test: Antibacterial activity against Streptococcus pneumoniae Mef 3449; format: functional
[18] = Plasma half life in Sprague-Dawley rat at 15 mg/kg, po; format: ADME, organism-based; set-up: dose 15 mg/kg, route oral
Streptococcus pneumoniae [19] = test: Antibacterial activity against Streptococcus pneumoniae Erm 10279; format: functional
Streptococcus pneumoniae [20] = test: Antibacterial activity against Streptococcus pneumoniae Erm 4290; format: functional
Enterococcus faecalis [21] = test: Antibacterial activity against Enterococcus faecalis 29212; format: functional
Staphylococcus aureus [22] = test: Antibacterial activity against Staphylococcus aureus 33591; format: functional
Streptococcus pyogenes = test: Antibacterial activity against Streptococcus pyogenes 8668; format: functional
Streptococcus pneumoniae [23] = test: Antibacterial activity against Streptococcus pneumoniae 49619; format: functional
Streptococcus pneumoniae [24] = test: Antibacterial activity against Streptococcus pneumoniae Erm 5354; format: functional
Haemophilus influenzae [25] = test: Antibacterial activity against Haemophilus influenzae 49247; format: functional
Streptococcus pneumoniae [26] = test: Antibacterial activity against Streptococcus pneumoniae Mef 2382; format: functional
Streptococcus pneumoniae [27] = test: Antibacterial activity against Streptococcus pneumoniae Mef 9959; format: functional
Streptococcus pneumoniae [28] = test: Antibacterial activity against Streptococcus pneumoniae Erm 2218; format: functional
Streptococcus pneumoniae [29] = test: Antibacterial activity against Streptococcus pneumoniae Erm S 4297; format: functional
Streptococcus pneumoniae [30] = test: Antibacterial activity against Streptococcus pneumoniae Erm 5415; format: functional
Streptococcus pneumoniae [31] = test: Antibacterial activity against Streptococcus pneumoniae 280-962; format: functional
Rattus norvegicus [32] = test: Efficacy against Streptococcus pneumoniae Erm in Sprague-Dawley rat lung infection model at 50 mg/kg; format: functional, organism-based; set-up: dose 50 mg/kg
Streptococcus pneumoniae [33] = test: Antibacterial activity against Streptococcus pneumoniae Erm 7985; format: functional
Streptococcus pneumoniae [34] = test: Antibacterial activity against Streptococcus pneumoniae Erm 4589; format: functional
[35] = Lung-to-plasma AUC ratio in Sprague-Dawley rat at 5 mg/kg, iv; format: ADME, organism-based; set-up: dose 5 mg/kg, route intravenous; conditions: lung and plasma
Streptococcus pneumoniae [36] = test: Antibacterial activity against Streptococcus pneumoniae Mef S 3435; format: functional
Rattus norvegicus [37] = test: Plasma AUC in Sprague-Dawley rat at 5 mg/kg, iv; format: ADME, organism-based; set-up: dose 5 mg/kg, route intravenous; conditions: in vivo
[38] = Plasma half life in Sprague-Dawley rat at 5 mg/kg, iv; format: ADME, organism-based; set-up: dose 5 mg/kg, route intravenous
Streptococcus pneumoniae [39] = test: Antibacterial activity against Streptococcus pneumoniae Mef 4126; format: functional
[40] = Oral bioavailability in Sprague-Dawley rat at 15 mg/kg, po; format: ADME, organism-based; conditions: in vivo
Streptococcus pneumoniae [41] = test: Antibacterial activity against Streptococcus pneumoniae Erm 8339; format: functional
[42] = test system: Staphylococcus epidermidis; test: Antibacterial activity against Staphylococcus epidermidis 14990; format: functional
Enterococcus faecalis [43] = test: Antibacterial activity against Enterococcus faecalis bc11148-2; format: functional
Streptococcus pneumoniae [44] = test: Antibacterial activity against Streptococcus pneumoniae Mef S 3427; format: functional
Streptococcus pneumoniae [45] = test: Antibacterial activity against Streptococcus pneumoniae Erm 6396; format: functional
Streptococcus pneumoniae [46] = test: Antibacterial activity against Streptococcus pneumoniae Erm 6849; format: functional
Streptococcus pneumoniae [47] = test: Antibacterial activity against Streptococcus pneumoniae Erm S 4085; format: functional
Streptococcus pneumoniae [48] = test: Antibacterial activity against Streptococcus pneumoniae Mef 3855; format: functional
[49] = test system: Staphylococcus epidermidis; test: Antibacterial activity against Staphylococcus epidermidis f50654; format: functional
Streptococcus pneumoniae [50] = test: Antibacterial activity against Streptococcus pneumoniae Erm 5554; format: functional
Streptococcus pneumoniae [51] = test: Antibacterial activity against Streptococcus pneumoniae Mef 41; format: functional
Streptococcus pneumoniae [52] = test: Antibacterial activity against Streptococcus pneumoniae Erm 5590; format: functional
Streptococcus pneumoniae [53] = test: Antibacterial activity against Streptococcus pneumoniae Erm 8947; format: functional
Streptococcus pneumoniae [54] = test: Antibacterial activity against Streptococcus pneumoniae Mef 6966; format: functional
Streptococcus pneumoniae [55] = test: Antibacterial activity against Streptococcus pneumoniae Mef 5654; format: functional
Rattus norvegicus [56] = test: Efficacy against Haemophilus influenzae in Sprague-Dawley rat lung infection model at 50 mg/kg; format: functional, organism-based; set-up: dose 50 mg/kg
Streptococcus pneumoniae [57] = test: Antibacterial activity against Streptococcus pneumoniae Mef 983; format: functional
Streptococcus pneumoniae [58] = test: Antibacterial activity against Streptococcus pneumoniae Mef 5649; format: functional
[59] = Lung half life in Sprague-Dawley rat at 15 mg/kg, po; format: ADME, organism-based; set-up: dose 15 mg/kg, route oral
Streptococcus pneumoniae [60] = test: Antibacterial activity against Streptococcus pneumoniae Erm 8257; format: functional
Streptococcus pneumoniae [61] = test: Antibacterial activity against Streptococcus pneumoniae Mef 4331; format: functional

MIC (Streptococcus pneumoniae [1]): 0.2 µg/mL (≈ 0.239 µM)
MIC (Streptococcus pneumoniae [2]): ≤ 0.05 µg/mL
MIC (Streptococcus pneumoniae [3]): 3.13 µg/mL (≈ 3.73 µM)
MIC (Streptococcus pneumoniae [4]): 0.1 µg/mL (≈ 0.119 µM)
MIC (Streptococcus pneumoniae [5]): 0.025 µg/mL (≈ 0.0298 µM)
MIC (Staphylococcus aureus [6]): 0.2 µg/mL (≈ 0.239 µM)
MIC (Streptococcus pneumoniae [7]): 0.4 µg/mL (≈ 0.477 µM)
MIC (Streptococcus pneumoniae [8]): ≤ 0.05 µg/mL
MIC (Streptococcus pneumoniae [9]): 0.025 µg/mL (≈ 0.0298 µM)
MIC (Streptococcus pneumoniae [10]): 0.2 µg/mL (≈ 0.239 µM)
Vd [11]: 14 L/kg
MIC (Haemophilus influenzae [12]): 1.56 µg/mL (≈ 1.86 µM)
MIC (Streptococcus pneumoniae [13]): 0.4 µg/mL (≈ 0.477 µM)
MIC (Streptococcus pneumoniae [14]): 0.025 µg/mL (≈ 0.0298 µM)
MIC (Streptococcus pneumoniae [15]): ≤ 0.05 µg/mL
MIC (Streptococcus pneumoniae [16]): 0.2 µg/mL (≈ 0.239 µM)
MIC (Streptococcus pneumoniae [17]): 0.2 µg/mL (≈ 0.239 µM)
half-life [18]: 2.4 h
MIC (Streptococcus pneumoniae [19]): 0.025 µg/mL (≈ 0.0298 µM)
MIC (Streptococcus pneumoniae [20]): 0.05 µg/mL (≈ 0.0597 µM)
MIC (Enterococcus faecalis [21]): 0.1 µg/mL (≈ 0.119 µM)
MIC (Staphylococcus aureus [22]): > 50 µg/mL
MIC (Streptococcus pyogenes): ≤ 0.05 µg/mL
MIC (Streptococcus pneumoniae [23]): ≤ 0.05 µg/mL
MIC (Streptococcus pneumoniae [24]): 0.025 µg/mL (≈ 0.0298 µM)
MIC (Haemophilus influenzae [25]): 3.13 µg/mL (≈ 3.73 µM)
MIC (Streptococcus pneumoniae [26]): 0.1 µg/mL (≈ 0.119 µM)
MIC (Streptococcus pneumoniae [27]): 0.2 µg/mL (≈ 0.239 µM)
MIC (Streptococcus pneumoniae [28]): 0.1 µg/mL (≈ 0.119 µM)
MIC (Streptococcus pneumoniae [29]): 0.025 µg/mL (≈ 0.0298 µM)
MIC (Streptococcus pneumoniae [30]): 0.025 µg/mL (≈ 0.0298 µM)
MIC (Streptococcus pneumoniae [31]): ≤ 0.05 µg/mL
MIC (Streptococcus pneumoniae [33]): ≤ 0.013 µg/mL
MIC (Streptococcus pneumoniae [34]): 0.025 µg/mL (≈ 0.0298 µM)
Kp [35]: 80
MIC (Streptococcus pneumoniae [36]): <=0.05 ug ml-1
AUC (Rattus norvegicus [37]): 2100 ng·h/mL
half-life [38]: 1.6 h
MIC (Streptococcus pneumoniae [39]): ≤ 0.05 µg/mL
bioavailability [40]: 35%
MIC (Streptococcus pneumoniae [41]): 1.56 µg/mL (≈ 1.86 µM)
MIC [42]: 0.2 µg/mL (≈ 0.239 µM)
MIC (Enterococcus faecalis [43]): 0.78 µg/mL (≈ 0.931 µM)
MIC (Streptococcus pneumoniae [44]): 0.2 µg/mL (≈ 0.239 µM)
MIC (Streptococcus pneumoniae [45]): 0.1 µg/mL (≈ 0.119 µM)
MIC (Streptococcus pneumoniae [46]): 0.1 µg/mL (≈ 0.119 µM)
MIC (Streptococcus pneumoniae [47]): 0.025 µg/mL (≈ 0.0298 µM)
MIC (Streptococcus pneumoniae [48]): 0.2 µg/mL (≈ 0.239 µM)
MIC [49]: 0.2 µg/mL (≈ 0.239 µM)
MIC (Streptococcus pneumoniae [50]): 0.78 µg/mL (≈ 0.931 µM)
MIC (Streptococcus pneumoniae [51]): 0.1 µg/mL (≈ 0.119 µM)
MIC (Streptococcus pneumoniae [52]): 0.025 µg/mL (≈ 0.0298 µM)
MIC (Streptococcus pneumoniae [53]): 0.4 µg/mL (≈ 0.477 µM)
MIC (Streptococcus pneumoniae [54]): 0.2 µg/mL (≈ 0.239 µM)
MIC (Streptococcus pneumoniae [55]): 0.4 µg/mL (≈ 0.477 µM)
MIC (Streptococcus pneumoniae [57]): 0.4 µg/mL (≈ 0.477 µM)
MIC (Streptococcus pneumoniae [58]): 0.2 µg/mL (≈ 0.239 µM)
half-life [59]: 3.4 h
MIC (Streptococcus pneumoniae [60]): ≤ 0.013 µg/mL
MIC (Streptococcus pneumoniae [61]): 0.4 µg/mL (≈ 0.477 µM)
SMILES: C=C[C@]12OC(=O)N(CCCCn3cnc(-c4ccc(C)nc4)c3)[C@@H]1[C@@H](C)C(=O)[C@H](C)C[C@@](C)(OC)[C@H](O[C@@H]1O[C@H](C)C[C@H](N(C)C)[C@H]1O)[C@@H](C)C(=O)[C@@H](C)C(=O)O[C@@H]2CC
Activity (Rattus norvegicus [32]): Active
Activity (Rattus norvegicus [56]): Active
